Patent US20090220964A1, “METHODS FOR DIAGNOSING AND TREATING CANCERS VIA MANIPULATIONS OF A...PATHWAY” (UNIVERSITY OF CINCINNATI, priority 2006, published 2009)

What was measured:
Rpb1 = conditions: 786-0 VHL(+) cells, 25 μM H2O2, 15 min, nuclease digested extracts
Experimental: The antibody was used to investigate the role of oxidative stress in P1465 hydroxylation and pVHL-dependent ubiquitylation of Rpb1. […] The experiments were performed using RCC 786-0 cells, a well-characterized model of renal cell cancer, in which native pVHL is absent or stably reconstituted (in legend: 786-0 VHL(−) and VHL(+)). The cells were exposed briefly to a low concentration of H2O2 (25 μM, 15 min) to induce a generic oxidative stress, and assayed at the indicated time points after treatment.

pVHL = assay: Immunoblot of crude chromatin fractions after H2O2 treatment; conditions: cells expressing wild type pVHL, 25 μM H2O2, collected 4 h after treatment
Description: In our experiments, we fractionated the pool of Rpb1 engaged on DNA using nuclease digestion and different salt extractions: the nuclear pellet remaining after standard extraction of nuclei with 0.3 M salt was digested with DNAse and micrococcal nuclease, and the digest was then extracted with the indicated concentrations of NaCl (FIG. 3). […] Two other antibodies against Rpb1 were also used: H14, and N20, which is specific for the N-terminal region of Rpb1, independent of its phosphorylation state.

HIF-1α peptide = conditions: nuclear extracts from VHL(+) cells treated with 25 μM H2O2, collected after 4 h; 17-amino acid peptide
Experimental: (§1) The in vitro reactions of synthetic Rpb1 and HIF-1α peptides were performed using nuclear extracts from cells treated with 25 μM H2O2 and collected after 4 h.

Rpb1 peptides = conditions: nuclear extracts from 786-0 VHL(+) cells treated with 25 μM H2O2, collected after 4 h; 37- or 24-amino acid peptides
Experimental: as §1

[1] = tested on: deubiquitylating enzymes, isopeptidase T and ubiquitin C-terminal hydrolase L3; assay: Deubiquitylation of Rpb1 in chromatin extract by deubiquitylating enzymes; format: biochemical; conditions: second 0.5 M chromatin fraction of VHL(+) cells
Description: Rpb1 was immunoprecipitated using H14 antibody from the second 0.5 M chromatin fraction, and the immunoprecipitated Rpb1 was immunobloted with BP and anti-ubiquitin antibodies (FIG. 3D). Clearly, the Rpb1 hyperphosphorylated on Ser-5 is also hydroxylated and ubiquitylated in response to oxidative stress and this response depends on the presence of functional pVHL (FIG. 1C). To confirm ubiquitylation of the hydroxylated and hyperphosphorylated Rpb1, the extracts from the second 0.5 M chromatin fraction of VHL(+) cells were incubated with deubiquitylating enzymes, isopeptidase T and ubiquitin C-terminal hydrolase L3. This treatment results in disappearance of the high migrating forms (FIG. 3E. lane 3) which is prevented by ubiquitin aldehyde, an inhibitor of deubiquitylating enzymes (FIG. 3E, lane 4).

Row | disappearance of high migrating (ubiquitylated) forms of Rpb1 [1] | Compound | hydroxylation of Rpb1 (Rpb1) | enrichment of pVHL in chromatin extract fractions (pVHL) | HIF-1α peptide hydroxylation (capture of [35S]-labeled pVHL) (HIF-1α peptide) | Rpb1 peptide hydroxylation (capture of [35S]-labeled pVHL) (Rpb1 peptides)
1 | – | OO [H2O2, hydrogen peroxide] | induced persistent (lasting several hours) pVHL-dependent hydroxylation of Rpb1 | 3.5+/−1.1 fold increase | not affected | augmented peptide hydroxylation
2 | prevented | ubiquitin aldehyde | – | – | – | –
